B1: Hu5F9-G4: humanized anti-CD47 antibody provided by the CD47 disease team at Stanford University (antibody, chains of the INN, looked up, V domains shown)
VH: QVQLVQSGAEVKKPGASVKVSCKASGYTFTNYNMHWVRQAPGQRLEWMGTIYPGNDDTSYNQKFKDRVTITADTSASTAYMELSSLRSEDTAVYYCARGGYRAMDYWGQGTLVTVSS
VL: DIVMTQSPLSLPVTPGEPASISCRSSQSIVYSNGNTYLGWYLQKPGQSPQLLIYKVSNRFSGVPDRFSGSGSGTDFTLKISRVEAEDVGVYYCFQGSHVPYTFGQGTKLEIK
B2: B6H12: anti-CD47 antibody (B6H12, BD Biosciences) (antibody, V domains shown)
VH: EVQLVESGGDLVKPGGSLKLSCAASGFTFSGYGMSWVRQTPDKRLEWVATITSGGTYTYYPDSVKGRFTISRDNAKNTLYLQIDSLKSEDTAIYFCARSLAGNAMDYWGQGTSVTVSS
VL: DIVMTQSPATLSVTPGDRVSLSCRASQTISDYLHWYQQKSHESPRLLIKFASQSISGIPSRFSGSGSGSDFTLSINSVEPEDVGVYYCQNGHGFPRTFGGGTKLEIK

Experiments:
[1] = test system: SW620 cells; assay: FACS-based phagocytosis assay, mouse BMDMs with SW620 target cells; type: cell-based, human; details: for phagocytosis of tumor cells after treatment of macrophages with TLR agonist: SW620 (PBS-treated, Hu5F9-G4-treated or CD47KO), γc-/- or NSG mice, FIG. 6A-6B
Protocol: We performed phagocytosis assays by co-culturing mouse bone marrow-derived macrophages (BMDMs) and target human cancer cells to examine the efficacy of PrCR under different conditions. To induce phagocytosis, we blocked CD47 on a human colon cancer cell line (SW620) by either treating tumor cells with CD47 blocking antibodies or directly knocking it out.
(§1) Phagocytosis assay. FACS-based phagocytosis assays were performed to evaluate phagocytic abilities of macrophages. Macrophages were harvested after 6-8 days of differentiation and divided into FACS tubes or low-attachment 96-well plates, with 1-5×10^4 cells per well/tube. Target cells were added and mixed with macrophages, and incubated at 37° C. for 2 hrs with indicated conditions (antibody/drug treatment). For CD47 blockade, anti-CD47 (B6H12, BD Biosciences) or humanized anti-CD47 (Hu5F9-G4; provided by the CD47 disease team at Stanford University) antibodies were used. Cells were then incubated with PE cy7-conjugated anti-mouse F4/80 antibody to stain macrophages. After incubation, cells were washed with FACS buffer and resuspended with FACS buffer containing sytox blue to distinguish dead cells. Phagocytic index was examined by FACS analyses, and macrophages that phagocytosed target cells were F4/80+ and GFP+. Phagocytic index was calculated with the number of F4/80+GFP+ cells/divided by the number of F4/80+ cells. In each experiment, phagocytic indexes were normalized to the maximal indexes.
Alternatively, macrophages and target cells were mixed and cocultured in 24 well plates for 16-24 hrs with indicated conditions. Cells were collected from the plates by TrypLE and incubated with PE cy7-conjugated anti-mouse F4/80 antibody to stain for macrophages. After incubation, cells were washed with FACS buffer and resuspended with FACS buffer containing sytox blue and non-colored standard cells (293T cells were used as standard cells). Cells were then subjected to FACS analyses. Remaining target cells were normalized to standard cells (numbers of standard cells were known and equal in each sample) to evaluate the percentage of cells phagocytosed by macrophages during the incubation.

[2] = test system: HL60, Raji, PC3, MDA-MB-231 cells; assay: Phagocytosis assay, mouse BMDMs with multiple hematopoietic and solid tumor cells; type: cell-based, human; details: macrophages treated with TLR3, 4 and 7 agonists; FIGS. 6A-C and 7A-D
From the text: FIG. 7A-7D. Phagocytosis of HL60, Raji, PC-3, MDA-MB-231 is enhanced by TLR agonists. Phagocytosis assays showing TLR agonists enhanced phagocytosis of multiple human cancer cells, with different hematopoietic (HL60 and Raji) and solid tumor (PC3 and MDA-MB-231) cells (PBS- or Hu5F9-G4-treated) as target cells and BMDMs from NSG (HL60, Raji and PC3) or RAG2^−/−, γc^−/− (MDA-MB-231) mice. HL60: Promyelocytic leukemia; Raji: Burkitt's lymphoma; PC3: Prostate cancer; MDA-MB-231: Breast cancer. Error bars represent standard deviation (FIG. 7A-7D).
as §1

[3] = biological target: T1, Btk (Mus musculus, UniProt P35991); assay: Immunoblot of Btk phosphorylation in macrophages; type: cell-based; details: treatment with TLR agonist, FIG. 2B
T1 construct: endogenous in cells; probably mouse bone-marrow-derived macrophages
From the text: FIG. 2A-2D. […] Error bars represent standard deviation (FIGS. 2A, 2C and 2D).

[4] = test system: calreticulin (CRT); assay: Cell surface exposure of CRT on macrophages (cell surface biotinylation, flow cytometry); type: cell-based, mouse; details: for cell surface exposure of CRT on macrophages, flow cytometry: TLR agonist treatment, FIG. 3B, 10B; for cell surface CRT on macrophages, cell surface biotinylation assay: immunoblots, FIG. 3A
Protocol: Flow cytometry Analysis. Flow cytometry analyses were performed using a BD LSRFortessa. For staining, 2.5×10^5-10^6 cells were incubated with indicated antibodies (1:50-1:200) in FACS buffer (PBS with 2% fetal bovine serum) on ice for 30 minutes. Cells were then washed with FACS buffer and subjected to FACS analyses. For staining of macrophages, cells were first treated with Fc receptor blockers or a high concentration of isotype IgG control (5-10 times of indicated antibodies) to block non-specific binding of antibodies caused by the interaction of Fc domain and Fc receptors on macrophages.
Cell surface biotinylation. […] Cells were incubated with NHS-SS-Biotin (0.5 mg/ml) for 1 hr in PBS (pH8.0), and then rinsed with quench buffer (20 mM Tris-HCl, 120 mM NaCl, pH7.4), 100 mM Glycine in PBS, and PBS. Cells were lysed in lysis buffer (20 mM Tris-HCl, pH7.4, 150 mM NaCl, 2 mM EDTA, supplemented with 1% Triton X-100, protease inhibitor cocktail and phosphatase inhibitor cocktail). Cell lysate was incubated with neutravidin agarose resin for 4 hr at 4° C., and the resin was washed using lysis buffer. Biotin-labeled proteins were eluted with lysis buffer containing 2% SDS and 100 mM DTT, and subjected to SDS-PAGE and immunoblotting. Intracellular protein GAPDH was used as a negative control to confirm that only cell surface proteins were labeled by NHS-SS-Biotin.

[5] = test system: SW620 cells; assay: Phagocytosis assay, human PBMC-derived macrophages with SW620 target cells; type: cell-based; details: SW620 Control IgG- or B6H12-treated; FIG. 10D
Protocol: The cells were examined by flow cytometry analyses. Remaining target cells were used to evaluate efficacy of phagocytosis, with less remaining target cells representing stronger phagocytosis. […] Error bars represent standard deviation (FIGS. 10A, 10C and 10D).
Human peripheral blood-derived macrophages were generated as previously described.
Phagocytosis assay. FACS-based phagocytosis assays were performed to evaluate phagocytic abilities of macrophages. […] Target cells were added and mixed with macrophages, and incubated at 37° C. for 2 hrs with indicated conditions (antibody/drug treatment). For CD47 blockade, anti-CD47 (B6H12, BD Biosciences) or humanized anti-CD47 (Hu5F9-G4; provided by the CD47 disease team at Stanford University) antibodies were used. Cells were then incubated with PE cy7-conjugated anti-mouse F4/80 antibody to stain macrophages. After incubation, cells were washed with FACS buffer and resuspended with FACS buffer containing sytox blue to distinguish dead cells. Phagocytic index was examined by FACS analyses, and macrophages that phagocytosed target cells were F4/80+ and GFP+. Phagocytic index was calculated with the number of F4/80+GFP+ cells/divided by the number of F4/80+ cells. In each experiment, phagocytic indexes were normalized to the maximal indexes.

[6] = test system: calreticulin (CRT); assay: CRT phosphorylation in J774 cells expressing myc-CRT (immunoprecipitation, immunoblot); type: cell-based, mouse; details: myc-tagged CRT, FIG. 10E
Protocol: Immunoprecipitation. Calreticulin was immunoprecipitated from J774 cells expressing myc-CRT. J774 cells were plated 12 hrs before immunoprecipitation. Cells were treated with imiquimod (1 ug/ml) at indicated time points, and washed with pre-chilled PBS containing phosphatase inhibitors on ice. Cells were then lysed in lysis buffer (20 mM Tris-HCl, pH7.4, 150 mM NaCl, 2 mM EDTA, supplemented with 1% Triton X-100, protease inhibitor cocktail and phosphatase inhibitor cocktail). Cell lysate was incubated for 1 hr with GammaBind Plus Sepharose for preclearance and 4 hr with anti-myc antibodies at 4° C. GammaBind sepharose was added to cell lysate and incubated for 1 hr at 4° C. Beads were washed with lysis buffer. Proteins were eluted with lysis buffer containing 2% SDS and 100 mM DTT, and subjected to SDS-PAGE and immunoblotting. To detect phosphorylated CRT, the blot was incubated with biotin-labeled pT66 anti-p-Tyrosine antibody and HRP-conjugated streptavidin.

[7] = test system: PC3 prostate cancer cells; assay: Flow cytometry of dissociated PC3 tumor specimens from treated NSG mice; type: in vivo, mouse; details: PC3 tumors in NSG mice; FIG. 8B
Protocol: Tumor engraftment and treatment. PC3 cells (human prostate cancer) were suspended in F-12K medium with 25% matrix matrigel, and injected subcutaneously on the back of 6-10 week NSG mice. Mice were treated with PBS or Hu5F9-G4 antibody by intraperitoneal injection 2 weeks after engraftment, and PBS or TLR agonists (20 μg of Poly (I:C) HMW and 20 μg of LPS) by intratumoral injection 7 weeks after engraftment when tumors reached 100 mm^3.
Tumor dissociation and FACS analyses. Tumor specimens were collected from the mice, minced to pieces smaller than 1 mm in diameter and dissociated in medium 199 with TM enzymes and DNAase at 37° C. until single-cell suspension was achieved. The cells were treated with ACK lysing buffer for lysis of red blood cells, washed twice with HBSS, filtered through 70 μm cell strainer and subjected to flow cytometry analyses. The cells were stained with anti-CD31 antibody, anti-Gr-1 antibody and sytox blue to exclude endothelial cells, neutrophils and dead cells, and with anti-F4/80 antibody for macrophages.

T1 sequence (P35991 whole entry): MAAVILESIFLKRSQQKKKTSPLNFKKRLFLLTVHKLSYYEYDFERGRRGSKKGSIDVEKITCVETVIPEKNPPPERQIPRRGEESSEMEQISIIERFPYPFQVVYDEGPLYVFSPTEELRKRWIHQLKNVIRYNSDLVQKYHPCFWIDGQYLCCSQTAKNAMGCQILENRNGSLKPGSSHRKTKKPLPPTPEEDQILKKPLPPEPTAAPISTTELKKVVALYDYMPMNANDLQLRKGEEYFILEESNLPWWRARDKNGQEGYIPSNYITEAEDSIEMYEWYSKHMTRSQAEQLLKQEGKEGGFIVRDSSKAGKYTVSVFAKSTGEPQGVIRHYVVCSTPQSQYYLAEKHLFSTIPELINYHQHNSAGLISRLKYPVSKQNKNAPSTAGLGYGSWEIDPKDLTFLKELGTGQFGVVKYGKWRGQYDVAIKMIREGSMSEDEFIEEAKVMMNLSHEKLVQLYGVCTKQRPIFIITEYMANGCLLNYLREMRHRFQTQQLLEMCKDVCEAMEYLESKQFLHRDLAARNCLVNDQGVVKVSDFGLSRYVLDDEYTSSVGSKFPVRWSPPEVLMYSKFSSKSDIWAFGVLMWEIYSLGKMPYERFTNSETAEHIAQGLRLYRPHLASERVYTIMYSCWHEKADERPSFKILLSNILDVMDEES

Molecule | phagocytosis of tumor cells after treatment of macrophages with TLR agonist ([1]; BMDMs from RAG2-/-) | phagocytosis of multiple hematopoietic and solid tumor cells [2] | Btk phosphorylation in macrophages [3] | cell surface exposure of CRT on macrophages, flow cytometry [4] | cell surface CRT on macrophages, cell surface biotinylation assay [4] | further results
polyinosinic-polycytidylic acid-high molecular weight [Poly (I:C) HMW] | promoted phagocytosis | dramatically enhanced | stimulated Btk to be phosphorylated | Increased cell surface exposure | – | –
C=CC(=O)N1CCC[C@@H](n2nc(-c3ccc(Oc4ccccc4)cc3)c3c(N)ncnc32)C1 [ibrutinib, 1-[(3R)-3-[4-amino-3-(4-phenoxyphenyl)pyrazolo[3,4-d]pyrimidin-1-yl]piperidin-1-yl]prop-2-en-1-one] | – | – | – | – | decreased | basal level phagocytosis of cancer cells (resting macrophages) ([1]; Fc-dependent and -independent, 16 hr coculture, BMDMs from RAG2-/-, γc-/- mice, FIG. 10A): inhibitory effect; phagocytosis induced by TLR agonists, combined with inhibitor ([1]; SW620 (control or CD47KO), BMDMs from RAG2-/-, γc-/- mice, FIG. 2A): significantly attenuated; time to maximal inhibition of phagocytosis on blockade of Btk ([1]; SW620 CD47KO target cells, BMDMs from NSG mice, FIG. 2D): ≤ 1 h; phagocytosis of SW620 cells by human PBMC-derived macrophages [5]: inhibited phagocytosis; imiquimod-induced cell surface expression of CRT on macrophages with ibrutinib ([4]; imiquimod+ibrutinib, flow cytometry, FIG. 10B): reversed
lipopolysaccharide [LPS] | promoted phagocytosis | dramatically enhanced | stimulated Btk to be phosphorylated | Increased cell surface exposure | – | phagocytic ability of macrophages ([1]; SW620 (PBS- or Hu5F9-G4-treated), BMDMs from NSG mice, flow cytometry plots, FIG. 6C): strongly enhanced
CC(C)Cn1cnc2c(N)nc3ccccc3c21 [imiquimod, Imiquimod] | promoted phagocytosis | dramatically enhanced | stimulated Btk to be phosphorylated | Increased cell surface exposure | increased | duration of Btk-activation for maximal phagocytic ability of macrophages ([1]; SW620 CD47KO target cells, BMDMs from NSG mice, FIG. 2C): 16 h; cell surface exposure of CRT on macrophages, flow cytometry ([4]; listed as Imiquimod): increased cell surface expression; time of treatment to maximal level of CRT phosphorylation [6]: 30 min
B1 | – | – | – | – | – | macrophages (a1+a2) in tumor specimens [7]: 46.26%; macrophages that had phagocytosed tumor cells a2 (GFP+F4/80+), ongoing phagocytosis [7]: 39.3%; tumor cells a4 (GFP+F4/80-) in tumor specimens [7]: 40%
B2 | – | – | – | – | – | phagocytosis of SW620 cells on blockade of CD47 ([1]; BMDMs from RAG2-/-, γc-/- mice, FIG. 1A): induced phagocytosis
